Results from patent US8834841B2, “Imaging agents” (priority 2005, dated 2014).

How the values were obtained:
SKOV3 ovarian carcinoma = test: in vitro amino acid uptake, SKOV3 cells; type: cell-based, human
From the text: The inventive compounds have been evaluated in vitro for tumor binding specificity (i.e. uptake cells) using a variety of tumor cell lines available in the art, along with reference compounds such as Me-AIB and BCH. Detailed description of these assays can be found in Martarello et al. (2002) Journal of Medicinal Chemistry, 45:2250-2259 and McConathy et al. (2003) Nuclear Medicine and Biology, 30:477-490. These, so called “amino acid uptake studies” are typically carried out with radiolabeled compounds in at least five phenotypically different human tumor cell lines (e.g. A549 lung carcinoma, MB468 breast carcinoma, DU145 prostate carcinoma, SKOV3 ovarian carcinoma, and U87 glial blastoma). These tumor cell lines can be grown either in vitro or in vivo with severe combined immunodeficiency (SCID) mice as a host. The fore-mentioned tumor cell lines are available at the Winship Cancer Institute of Emory University.
For the in vitro amino acid uptake studies, all cells can be grown to monolayer confluency in T-175 culture flasks [Corning, Corning, N.Y.] (approx. 1×10^8 cells/flask) in Dulbecco's Modified Eagle's Medium (DMEM) [Sigma, St. Louis, Mo.] in a humidified incubator (37° C., 5% CO2/95% air). Media are supplemented with 10% fetal calf serum [Hyclone, Logan, Utah], and antibiotics (10,000 U/ml penicillin and 10 mg/ml streptomycin) (Sigma, St. Louis, Mo.). For tissue culture passage, monolayer cells are detached by gentle trypsinization, resuspended in complete media, and split 1:10 into new T-flasks. […]
In the in vitro studies the uptake rate of each amino acid compound is measured in each tumor line, as well as the dominant transport mechanisms of each tumor cell line. After trypsinization, cells are resuspended in serum-free media, then counted on a hemocytometer, with viability assessed through Trypan blue staining. […] The vials are placed in a Cobra-II gamma counter (Packard, Meriden, Conn.), with the activity per cell number determined. […] Saline washes are performed as described above, and the filtered cells radioactivity determined on the gamma counter. […]

[1] = system: A549 Lung Tumor Cells Implanted SC in SCID Mice; test: tissue distribution, A549 tumor-bearing SCID mice; type: in vivo
Protocol: For the in vitro amino acid uptake studies, all cells can be grown to monolayer confluency in T-175 culture flasks [Corning, Corning, N.Y.] (approx. 1×10^8 cells/flask) in Dulbecco's Modified Eagle's Medium (DMEM) [Sigma, St. Louis, Mo.] in a humidified incubator (37° C., 5% CO2/95% air). Media are supplemented with 10% fetal calf serum [Hyclone, Logan, Utah], and antibiotics (10,000 U/ml penicillin and 10 mg/ml streptomycin) (Sigma, St. Louis, Mo.). For tissue culture passage, monolayer cells are detached by gentle trypsinization, resuspended in complete media, and split 1:10 into new T-flasks. Cultures are passaged weekly, and fed fresh media every 2 to 3 days. To initiate tumor growth in SCID mice, 1×10^6 cells are injected s.c. bilaterally into the flanks (inguinal region) of the recipient animals using a 1 ml syringe with a 27 gauge needle. Ex vivo experiments can be performed with animals containing tumors weighing between 500 mg and 1 g, as estimated by caliper measurement (tumor weight=(π/6)*abc, where a, b and c are the tumor length, width and height, respectively). The compounds of the invention are further evaluated for their tumor specificity and selectivity in tumor-bearing animal models. One can evaluate and compare the transport, accumulation and tissue distribution of each compound in these in vivo animal studies. Tissue distribution of the compounds is measured in SCID mice (average weight, 20-25 g) bearing human tumors as follows. The candidate radioligands (20 uCi in 0.4 ml 0.9% NaCl) are injected into the tail vein of tumor-bearing mice. […] Tissues (blood, heart, liver, lungs, kidneys, bone, thyroid, muscle, brain and tumor) are excised, rinsed in saline, and blotted dry. The tissues are weighed, placed into 12×75 mm glass vials, the radioactivity determined with a gamma counter, and the percent dose/gram calculated. Total activities of blood and muscle are calculated by assuming that they account for 7% and 40% of the total body mass, respectively.

SMILES: NC1(C(=O)O)CCC1[18F] [Anti-R,S 2-[^18F]FACBC, (R,S) anti-1-amino-2-[^18F]fluorocyclobutyl-1-carboxylic acid]
- % Dose Uptake/0.5e6 Cells (SKOV3 ovarian carcinoma; SKOV3, No inhibitor): 2.16 +/− 0.14 % Dose Uptake/0.5e6 Cells
- % Dose Uptake/0.5e6 Cells (SKOV3 ovarian carcinoma; SKOV3, inhibitor BCH (10 mM)): 1.74 +/− 0.01 % Dose Uptake/0.5e6 Cells
- % Dose Uptake/0.5e6 Cells (SKOV3 ovarian carcinoma; SKOV3, inhibitor MeAlB (10 mM)): 0.75 +/− 0.01 % Dose Uptake/0.5e6 Cells
- % Dose/g blood ([1]; 15 Minutes): 3.39 % Dose/g
- % Dose/g bone ([1]; 15 Minutes): 2.06 % Dose/g
- % Dose/g brain ([1]; 15 Minutes): 0.26 % Dose/g
- % Dose/g heart ([1]; 15 Minutes): 2.70 % Dose/g
- % Dose/g kidney ([1]; 15 Minutes): 10.11 % Dose/g
- % Dose/g liver ([1]; 15 Minutes): 3.15 % Dose/g
- % Dose/g lung ([1]; 15 Minutes): 4.23 % Dose/g
- % Dose/g muscle ([1]; 15 Minutes): 1.38 % Dose/g
- % Dose/g pancreas ([1]; 15 Minutes): 48.45 % Dose/g
- % Dose/g spleen ([1]; 15 Minutes): 7.90 % Dose/g
- % Dose/g tumor ([1]; 15 Minutes): 5.11 % Dose/g
- % Dose/g blood ([1]; 30 Minutes): 2.42 % Dose/g
- % Dose/g bone ([1]; 30 Minutes): 1.63 % Dose/g
- % Dose/g brain ([1]; 30 Minutes): 0.25 % Dose/g
- % Dose/g heart ([1]; 30 Minutes): 2.23 % Dose/g
- % Dose/g kidney ([1]; 30 Minutes): 5.47 % Dose/g
- % Dose/g liver ([1]; 30 Minutes): 2.70 % Dose/g
- % Dose/g lung ([1]; 30 Minutes): 3.03 % Dose/g
- % Dose/g muscle ([1]; 30 Minutes): 1.43 % Dose/g
- % Dose/g pancreas ([1]; 30 Minutes): 44.17 % Dose/g
- % Dose/g spleen ([1]; 30 Minutes): 5.02 % Dose/g
- % Dose/g tumor ([1]; 30 Minutes): 4.28 % Dose/g
- % Dose/g blood ([1]; 60 Minutes): 1.08 % Dose/g
- % Dose/g bone ([1]; 60 Minutes): 1.01 % Dose/g
- % Dose/g brain ([1]; 60 Minutes): 0.16 % Dose/g
- % Dose/g heart ([1]; 60 Minutes): 1.41 % Dose/g
- % Dose/g kidney ([1]; 60 Minutes): 2.24 % Dose/g
- % Dose/g liver ([1]; 60 Minutes): 1.46 % Dose/g
- % Dose/g lung ([1]; 60 Minutes): 1.40 % Dose/g
- % Dose/g muscle ([1]; 60 Minutes): 0.90 % Dose/g
- % Dose/g pancreas ([1]; 60 Minutes): 20.63 % Dose/g
- % Dose/g spleen ([1]; 60 Minutes): 2.85 % Dose/g
- % Dose/g tumor ([1]; 60 Minutes): 3.04 % Dose/g
- % Dose/g blood ([1]; 120 Minutes): 0.40 % Dose/g
- % Dose/g bone ([1]; 120 Minutes): 0.62 % Dose/g
- % Dose/g brain ([1]; 120 Minutes): 0.14 % Dose/g
- % Dose/g heart ([1]; 120 Minutes): 0.85 % Dose/g
- % Dose/g kidney ([1]; 120 Minutes): 1.02 % Dose/g
- % Dose/g liver ([1]; 120 Minutes): 0.58 % Dose/g
- % Dose/g lung ([1]; 120 Minutes): 0.56 % Dose/g
- % Dose/g muscle ([1]; 120 Minutes): 0.77 % Dose/g
- % Dose/g pancreas ([1]; 120 Minutes): 9.80 % Dose/g
- % Dose/g spleen ([1]; 120 Minutes): 1.48 % Dose/g
- % Dose/g tumor ([1]; 120 Minutes): 2.30 % Dose/g
